Source: patent publication US6313161A, “2,19-methyleneoxy and 2,19-methylenethio bridged steroids as aromatase, 19-hydroxylase inhibitors and methods of their use in the treatment of estrogen mediated disorders” (Merrell Pharmaceuticals Inc., priority 1999, dated 2001)

How the values were obtained:
aromatase = biological target: T1, aromatase (Homo sapiens, UniProt P11511); assay: Time-dependent aromatase inhibition assay (Kitz-Wilson kinetics); details: 25° C., Kitz-Wilson plots; for KI (inactivation): read-out: apparent Ki of inactivation, inhibitor concentration for half-maximal rate of enzyme inactivation
T1 sequence (P11511 1-503): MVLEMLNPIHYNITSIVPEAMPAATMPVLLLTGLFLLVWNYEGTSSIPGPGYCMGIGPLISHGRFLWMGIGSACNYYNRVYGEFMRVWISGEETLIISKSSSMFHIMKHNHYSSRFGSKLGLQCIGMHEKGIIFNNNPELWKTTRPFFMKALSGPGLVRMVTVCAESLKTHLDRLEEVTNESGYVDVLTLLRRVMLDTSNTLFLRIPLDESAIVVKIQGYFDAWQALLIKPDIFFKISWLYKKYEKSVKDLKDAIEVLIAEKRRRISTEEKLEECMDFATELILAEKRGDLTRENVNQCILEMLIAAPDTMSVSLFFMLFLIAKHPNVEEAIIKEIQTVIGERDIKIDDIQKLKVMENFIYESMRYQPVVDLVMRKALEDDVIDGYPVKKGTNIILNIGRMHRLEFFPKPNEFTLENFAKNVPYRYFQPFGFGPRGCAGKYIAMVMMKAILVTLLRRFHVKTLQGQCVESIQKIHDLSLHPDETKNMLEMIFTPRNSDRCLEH
Protocol: In this assay, the inhibitor is preincubated with enzyme prior to assaying for activity in the presence of high substrate levels. A time-related decrease in enzyme activity can be indicative of irreversible binding of the inhibitor with the enzyme.
In the time-dependent assay, an amount of the enzyme inhibitor in 100 μl of the assay buffer described above which will provide assay concentrations which are usually between 1 nM and 10 μM are added to 35 ml centrifuge tubes containing 600 μl of the NADPH generating system. The preincubation is started by the addition of 700 μl of aromatase preparation, usually 500-800 μg of microsomal protein per ml of assay buffer. These preparations are mixed using a vortex mixer and incubated for 0, 10, 20, or 40 minutes at 25° C. […] Following vortexing, the enzyme incubation is continued for 10 minutes before being terminated by the addition of chloroform. The amount of radioactivity in the aqueous fraction is determined by scintillation procedures. The enzymatic activity for each concentration of inhibitor at each time period of preincubation is calculated as a percent of the "0" minute vehicle control arbitrarily set at 100%. Therefore, the present enzyme inhibition is expressed as a percentage: (100 percent minus percent enzyme activity with inhibitor present).
Enzyme kinetic analysis utilized Kitz-Wilson plots for time-dependent assays. These analyses provide estimates of apparent Ki of inactivation which represents the inhibitor concentration required to produce half-maximal rate of enzyme inactivation. The pseudo first-order rate constant for enzyme inactivation (kcat) and the half-time of inactivation (.tau.50) of infinite inhibitor concentrations were determined.

intratumor aromatase = assay: Inhibition of intratumor aromatase activity (estrogen formed); assay type: in vivo
Text: According to the method of Johnston, J. O. et al., J. Steroid Biochem., 33:521, 1989, which is herein incorporated by reference, the compounds of the present invention were further evaluated for their effect upon intratumor aromatase activity.

[1] = tested on: DMBA-induced mammary tumors; assay: DMBA induced mammary tumor growth; assay type: in vivo, rat; details: 15 mg/kg/day sc osmotic pump, 42 days
Protocol: The compounds of the present invention were also tested for the inhibition of tumor growth. Tumor growth inhibition was tested by the treatment of 50-day old female rats with the carcinogen, 7,12-dimethylbenz[a]anthracene[DMBA] and subsequently evaluated for tumor growth and/or remission (Huggins, C. et al., Nature 189:204, 1961; Russo, J. et al., Lab. Investigation 62: 244, 1990). Rats with DMBA-induced mammary tumors (≈[…]) were assigned to the following treatment groups: (1) Non-treated controls, (2) animals with subcutaneous implanted osmotic pump containing vehicle (DMSO/PEG200, 1:4 v/v), and (3) animals with subcutaneous implanted osmotic pump containing vehicle and 15 mg/kg/day of 2,19-(methyleneoxy) androst-4-ene-3,17-dione. Drug-treated animals also received 15 mg/kg/day via subcutaneous injections for the first two days of treatment as a priming dose. Tumor size was monitored for 42 days of drug treatment.

[2] = substrate: C[C@]12CCC(=O)C=C1CC[C@@H]1[C@@H]2CC[C@]2(C)C(=O)CC[C@@H]12; assay: purified protein, by the assay type; details: other: substrate of aromatase; 25.0 °C
Protocol: In the time-dependent assay, an amount of the enzyme inhibitor in 100 μl of the assay buffer described above which will provide assay concentrations which are usually between 1 nM and 10 μM are added to 35 ml centrifuge tubes containing 600 μl of the NADPH generating system. The preincubation is started by the addition of 700 μl of aromatase preparation, usually 500-800 μg of microsomal protein per ml of assay buffer. […] The amount of radioactivity in the aqueous fraction is determined by scintillation procedures. The enzymatic activity for each concentration of inhibitor at each time period of preincubation is calculated as a percent of the "0" minute vehicle control arbitrarily set at 100%. Therefore, the present enzyme inhibition is expressed as a percentage: (100 percent minus percent enzyme activity with inhibitor present).
Enzyme kinetic analysis utilized Kitz-Wilson plots for time-dependent assays. […] The pseudo first-order rate constant for enzyme inactivation (kcat) and the half-time of inactivation (.tau.50) of infinite inhibitor concentrations were determined.

C[C@]12CC[C@H]3[C@@H](CCC4=CC(=O)[C@H]5CSC[C@]43C5)[C@@H]1CCC2=O [2,19-(methylenethio)androst-4-ene-3,17-dione]
.tau.50 (half-time of inactivation at infinite inhibitor concentration) (aromatase): 1.65 min
KI (inactivation) (aromatase): 53 nM

C[C@]12CC[C@H]3[C@@H](CCC4=CC(=O)[C@H]5COC[C@]43C5)[C@@H]1CCC2=O [2,19-(methyleneoxy)androst-4-ene-3,17-dione]
% Inhibition of intratumor aromatase activity (intratumor aromatase; 3 mg/kg intraveneous, 2 hours post treatment): 70 ± 5%
Estrogen formed, absolute level (intratumor aromatase; 3 mg/kg intraveneous, 2 hours post treatment, vehicle control 294 ± 5): 88 ± 15 picomoles/gram of tumor/hour
% Inhibition of intratumor aromatase activity (intratumor aromatase; 3 mg/kg intraveneous, 4 hours post treatment): 41 ± 4%
Estrogen formed, absolute level (intratumor aromatase; 3 mg/kg intraveneous, 4 hours post treatment, vehicle control 294 ± 5): 175 ± 12 picomoles/gram of tumor/hour
% Inhibition of intratumor aromatase activity (intratumor aromatase; 3 mg/kg intraveneous, 6 hours post treatment): 37 ± 3%
Estrogen formed, absolute level (intratumor aromatase; 3 mg/kg intraveneous, 6 hours post treatment, vehicle control 294 ± 5): 186 ± 9 picomoles/gram of tumor/hour
% Inhibition of intratumor aromatase activity (intratumor aromatase; 3 mg/kg oral, 2 hours post treatment): 72 ± 5%
Estrogen formed, absolute level (intratumor aromatase; 3 mg/kg oral, 2 hours post treatment, vehicle control 173 ± 9): 49 ± 8 picomoles/gram of tumor/hour
% Inhibition of intratumor aromatase activity (intratumor aromatase; 3 mg/kg oral, 4 hours post treatment): 64 ± 4%
Estrogen formed, absolute level (intratumor aromatase; 3 mg/kg oral, 4 hours post treatment, vehicle control 173 ± 9): 62 ± 7 picomoles/gram of tumor/hour
% Inhibition of intratumor aromatase activity (intratumor aromatase; 3 mg/kg oral, 6 hours post treatment): 63 ± 5%
Estrogen formed, absolute level (intratumor aromatase; 3 mg/kg oral, 6 hours post treatment, vehicle control 173 ± 9): 64 ± 9 picomoles/gram of tumor/hour
% Inhibition of intratumor aromatase activity (intratumor aromatase; 3 mg/kg subcutaneous, 2 hours post treatment): 44 ± 5%
Estrogen formed, absolute level (intratumor aromatase; 3 mg/kg subcutaneous, 2 hours post treatment, vehicle control 121 ± 85): 68 ± 6 picomoles/gram of tumor/hour
% Inhibition of intratumor aromatase activity (intratumor aromatase; 3 mg/kg subcutaneous, 4 hours post treatment): 45 ± 32%
Estrogen formed, absolute level (intratumor aromatase; 3 mg/kg subcutaneous, 4 hours post treatment, vehicle control 121 ± 85): 67 ± 3 picomoles/gram of tumor/hour
% Inhibition of intratumor aromatase activity (intratumor aromatase; 3 mg/kg subcutaneous, 6 hours post treatment): 35 ± 7%
Estrogen formed, absolute level (intratumor aromatase; 3 mg/kg subcutaneous, 6 hours post treatment, vehicle control 121 ± 85): 78 ± 9 picomoles/gram of tumor/hour
.tau.50 (half-time of inactivation at infinite inhibitor concentration) (aromatase): 2.86 min
KI (inactivation) (aromatase): 17.6 nM
percent of animals with no change ([1]; 50 to 150% of original tumor volume, controls 6.7): 14.3% of animals
percent of animals with partial tumor regression ([1]; <50% of original tumor volume, controls 6.7): 42.9% of animals
percent of animals with tumor progression ([1]; >150% of original tumor volume, controls 80.0): 28.6% of animals
percent of animals with complete tumor regression ([1]; Complete (0%), controls 6.7): 14.3% of animals

C[C@]12CC[C@H]3[C@@H](C=CC4=CC(=O)[C@H]5COC[C@]43C5)[C@@H]1CCC2=O [2,19-(methyleneoxy)androsta-4,6-diene-3,17-dione]
.tau.50 (half-time of inactivation at infinite inhibitor concentration) (aromatase): 2.82 min
KI (inactivation) (aromatase): 21.6 nM

B1: aromatase (Homo sapiens) (protein)
chain: MVLEMLNPIHYNITSIVPEAMPAATMPVLLLTGLFLLVWNYEGTSSIPGPGYCMGIGPLISHGRFLWMGIGSACNYYNRVYGEFMRVWISGEETLIISKSSSMFHIMKHNHYSSRFGSKLGLQCIGMHEKGIIFNNNPELWKTTRPFFMKALSGPGLVRMVTVCAESLKTHLDRLEEVTNESGYVDVLTLLRRVMLDTSNTLFLRIPLDESAIVVKIQGYFDAWQALLIKPDIFFKISWLYKKYEKSVKDLKDAIEVLIAEKRRRISTEEKLEECMDFATELILAEKRGDLTRENVNQCILEMLIAAPDTMSVSLFFMLFLIAKHPNVEEAIIKEIQTVIGERDIKIDDIQKLKVMENFIYESMRYQPVVDLVMRKALEDDVIDGYPVKKGTNIILNIGRMHRLEFFPKPNEFTLENFAKNVPYRYFQPFGFGPRGCAGKYIAMVMMKAILVTLLRRFHVKTLQGQCVESIQKIHDLSLHPDETKNMLEMIFTPRNSDRCLEH
Km [2]: 0.04 µM
